The source of these data is patent US7271278B2, “Application of chromium-amino acid complexes in the treatment of diabetes and other diseases” (The University of Wyoming, priority 2005, dated 2007).

One data set concerns insulin receptor beta. Kind of data set: Insulin-stimulated IRβ tyrosine phosphorylation, Western blot of 3T3-adipocyte lysates. It counts as cell-based, mouse. The following applies: pretreatment for various time or at different concentrations, insulin 10 nM 10 minutes. The procedure:
(§1) The 3T3-L1-pre-adipocytes were obtained from the American Type Culture Collection and were propagated at 37° C. in DMEM with 10% newborn calf serum plus 50 U/ml penicillin and 50 μg/ml streptomycin in an incubator under a humidified atmosphere of 5% CO2/95% air. Induction of differentiation was done one day post-confluence. Cells were maintained in differentiation medium of the following composition: DMEM, 10% FBS, […] dexamethasone, 0.5 mM 1-isobutyl-3-methylxanthine (IBMX) and ITS for three days. At day 3, the dexamethasone and IBMX were removed with ITS remaining on the cells for an additional two days. Differentiation was allowed to continue in DMEM supplemented with 10% FBS, ITS and the adipocytes were used between day 9 and 14 post-induction. Prior to the cellular assays, cells were serum starved by overnight incubation in DMEM (containing 0.2% serum).
Cells were lysed in RIPA buffer (150 mM NaCl, 0.25% sodium desoxycholate, 1% NP-40, 1 mM EDTA and 50 mM Tris, pH 7.2) containing 2 mM sodium vanadate, 1 μM PMSF, 1 μM sodium fluoride, 1 μg/ml aprotinin, 1 μg/ml leupeptin, and 1 μM pepstatin and sonicated to reduce the sample viscosity. The lysate was centrifuged at 15000×g for 15 minutes at 4° C. and the protein concentration in the supernatant was determined by the bicinchoninic acid method. Equivalent amounts of proteins were boiled in Laemmli sample buffer. Proteins 10-20 μg were separated on 7.5-10% polyacrylamide gel, and electrophoretically transferred to a nitrocellulose membrane. The membranes were incubated for 1 hour at room temperature in blocking buffer (5% w/v non-fat dry milk in tris buffered saline containing 0.1% Tween 20). Membranes were incubated in appropriate phospho-specific primary antibody for insulin receptor beta or Akt at 1:2500 dilutions in the blocking buffer followed by incubation with horseradish peroxidase-coupled secondary antibodies with appropriate specificity. Immunoreactive bands were visualized using enhanced chemiluminescence reagents (Cell Signaling Technology, Inc, Beverly, Mass.). […]
Background: In western blotting, separated proteins are transferred to a membrane and probed.

A further data set concerns Akt. Kind of data set: Insulin-stimulated Akt (thr308) phosphorylation, Western blot of 3T3-adipocyte lysates. It counts as cell-based, mouse. The procedure:
as §1
Cells were lysed in RIPA buffer (150 mM NaCl, 0.25% sodium desoxycholate, 1% NP-40, 1 mM EDTA and 50 mM Tris, pH 7.2) containing 2 mM sodium vanadate, 1 μM PMSF, 1 μM sodium fluoride, 1 μg/ml aprotinin, 1 μg/ml leupeptin, and 1 μM pepstatin and sonicated to reduce the sample viscosity. The lysate was centrifuged at 15000×g for 15 minutes at 4° C. and the protein concentration in the supernatant was determined by the bicinchoninic acid method. Equivalent amounts of proteins were boiled in Laemmli sample buffer. Proteins 10-20 μg were separated on 7.5-10% polyacrylamide gel, and electrophoretically transferred to a nitrocellulose membrane. The membranes were incubated for 1 hour at room temperature in blocking buffer (5% w/v non-fat dry milk in tris buffered saline containing 0.1% Tween 20). Membranes were incubated in appropriate phospho-specific primary antibody for insulin receptor beta or Akt at 1:2500 dilutions in the blocking buffer followed by incubation with horseradish peroxidase-coupled secondary antibodies with appropriate specificity. Immunoreactive bands were visualized using enhanced chemiluminescence reagents (Cell Signaling Technology, Inc, Beverly, Mass.). Blots were then stripped and re-probed with antibodies directed against insulin receptor β and Akt.

Data set [1] is described as follows: In vitro lipid-peroxidation of rat brain homogenate stimulated by hydrogen peroxide and ascorbate. The settings on record: rat-brain homogenate 10% w/v, hydrogen peroxide 1 mM, ascorbate 1 mM, 30 min; concentration-dependent. It counts as biochemical. The procedure: The end product of lipid-peroxidation, namely malondialdehyde (MDA), was estimated in the liver tissue homogenates by the colorimetric kit (Bioxytech LPO-586, Portland, Oreg.) using 1,1,3,3-tetra-ethoxypropane as a standard according to the manufacturer's specifications. This assay is based on the reaction of a chromogenic reagent N-methyl-2-phenylindole with MDA at 45° C. which yields a stable chromophore with absorbance maxima at 586 nm. Ability of Cr(D-Phe)3 to inhibit in vitro lipid-peroxidation was assessed in rat-brain homogenates (10% w/v) by incubating Cr(D-Phe)3 in the presence of hydrogen peroxide (1 mM) and ascorbic acid (1 mM) for 30 min at 37° C. followed by measuring MDA as described previously (Sreejayan et al. (1994) J. Pharm. Pharmacol., 46:1013-1016).

In data set [2] the test system is ob/ob(+/+) mice. Description: Plasma/serum lipids (total cholesterol, HDL) in obese mice. Type of data set: in vivo, mouse. How it is done: Specifically, mice were treated with Cr(pa)3 at 150 μg/kg/day for six weeks. Cholesterol levels were determined by using a kit from Equal Diagnostics (Exton, Pa.) following the manufacturer's protocol.
All animal treatment procedures described in this study were approved by the Animal Care and Use Committee at University of Wyoming (Laramie, Wyo.). Homozygous B6.Vlep/J male mice purchased from the Jackson Laboratory (Bar Harbor, Me.) at age 5 weeks were divided randomly into two weight-matched groups, marked as ob/ob(+/+) control and ob/ob(+/+) treatment (n=12). Number and age-matched normal C57 mice were used as lean control. All animals were maintained on conventional laboratory diet under well-controlled conditions of temperature (22±2° C.), humidity (55±5%) and 12 hours/12 hours light-dark cycle and had ad libitum access to water and standard rodent chow. Cr(D-Phe)3 was provided in the drinking water and, on the basis of water intake, was administered to provide an intake of about 150 μg/kg/day corresponding to about 10-15 μg elemental Cr/kg/day) for ob/ob(+/+) and lean treatment groups. […] The livers of these mice were frozen in liquid nitrogen immediately and stored at −80° C. until use. Blood was collected from the heart, and the serum was extracted by centrifuging the blood at 1000 g at 4° C. and stored at −80° C. Weights of body and other organs were measured with a standard laboratory scale.
Serum levels of total cholesterol, high-density-lipoprotein (HDL) and triglycerides were measured using commercial kits (from Equal Diagnostics, Exton, Pa.) and SpectraMax 340PC^384 Microplate Reader System (Molecular Device, Sunnyvale, Calif.).

Data set [3] can be described thus: Deoxyribose degradation assay for generation of hydroxyl radicals. The settings on record: 1.2 μM. How it is done: The potential of chromium compounds to generate hydroxyl radicals in vitro was assessed by the method reported previously (Halliwell et al. (1987) Anal. Biochem., 165:215-219). Briefly, a reaction mixture containing either chromium picolinate or Cr(pa)3, 2-deoxyribose (4 mM), ascorbic acid (100 μM) and hydrogen peroxide (100 μM) in potassium phosphate buffer (pH 7.4, 10 mM) was incubated at 37° C. for 30 minutes. An aliquot of the mixture was treated with 1% (w/v) thiobarbituric acid and 2.8% (w/v) trichloroacetic acid and heated at 90° C. for 10 minutes, rapidly cooled and the amount of chromogen formed in the sample was measured by its absorption at 532 nm. Ferric-EDTA (100 μM) was used as a positive control.

Data set [4] concerns ob/ob(+/+) mice. Description: Intraperitoneal glucose tolerance test (IPGTT) in ob/ob(+/+) and lean mice. Type of data set: in vivo, mouse. The text has this:
All animal treatment procedures described in this example were approved by the animal Care and Use Committee at University of Wyoming (Laramie, Wyo.). Homozygous B6.V-lep ob>/J male mice purchased from the Jackson Laboratory (Bar Harbor, Me.) at age 5 weeks were divided randomly into two weight-matched groups, marked as ob/ob(+/+) control and ob/ob(+/+) treatment (n=10). Number, age and weight matched normal C57 mice were used as lean control. All of these animals were maintained on conventional laboratory diet under well-controlled conditions of temperature (22±2° C.), humidity (55±5%) and 12 hour/12 hour light-dark cycle and had ad libitum access to water and standard rodent chow. Rodent diet and tap water were consumed by mice ad libitum. Cr(pa)3 was provided in the drinking water and, on the basis of water intake, was administered to provide an intake of about 150 μg/kg/day corresponding to about 10-15 μg elemental Cr/kg/day for ob/ob(+/+) and lean treatment groups. The dosage of chromium used was based on earlier animal studies reported with chromium picolinate (Cefalu et al. (2002) J. Nutr., 132:1107-1114).
At the end of the treatment schedule, mice were subjected to the intraperitoneal glucose tolerance test (IPGTT) as described previously (Hintz et al. (2003) Int. J. Obes. Relat. Metab. Disord., 27:1196-1203). Briefly, the mice were fasted for 12 hours and then given intraperitoneal injection of glucose (2 g/kg body weight). Glucose levels were determined in blood drops obtained by clipping the tail of the mice immediately before glucose challenge, as well as at 15, 60 and 120 minutes thereafter. Serum glucose levels were determined using ACCU-CHEK® Advantage® Glucose Analyzer (Roche Diagnostics Corporation, Ind.). Results of IPGTT are also expressed as integrated areas under the curves (AUC) over 120 minutes for glucose calculated by using the WinNonlin software (Pharsight Corporation, Mountain View, Calif.).

Turning to `N[C@H](Cc1ccccc1)C(=O)O.[Cr+3]` [Cr(pa)3, chromium (III) D-phenylalanine], in the data set with insulin receptor beta, the “insulin-stimulated IRβ tyrosine phosphorylation” value is reported as “not altered”. Also, the “phosphorylation levels of Akt” value with Akt (Cr(pa)3 alone, absence of insulin) was “did not alter”. Besides, the “stimulation of insulin-stimulated Akt phosphorylation compared to chromium picolinate” value in the data set on Akt (equimolar concentrations) is on record as “greater stimulation”. Besides, the “in vitro Akt phosphorylation among various chromium complexes” value in the data set with Akt (insulin 10 nM, vs Cr(Pic)3, Cr(AcAc)3, Cr(Sal)3, CrCl3) was “greatest amount”. The “insulin-stimulated Akt (thr308) phosphorylation” value in the data set on Akt (pretreatment, insulin 10 nM, concentration- and time-dependent) was “further increase”. Also, the “in vitro lipid-peroxidation (malondialdehyde equivalents)” value in data set [1] was “inhibited”. Besides, the “serum HDL-cholesterol levels” value in the data set with ob/ob(+/+) mice [2] (150 μg/kg/day 6 weeks) is “did not alter”. Also, in the data set with ob/ob(+/+) mice [2] (150 μg/kg/day 6 weeks (Example 2)), the “total serum cholesterol levels” value was “significant lowering”. In addition, the plasma cholesterol levels entry in the data set on ob/ob(+/+) mice [2] (150 μg/kg/day six weeks (Example 1)) is given as “significantly attenuated”. In addition, the degradation of deoxyribose entry in data set [3] is listed as “failed to cause any degradation of deoxyribose”. The “AUC of glucose, lean mice” value in the data set on ob/ob(+/+) mice [4] (lean mice, treated vs untreated) is “no significant changes”. For the same compound, the “serum glucose levels post-glucose-challenge” value with ob/ob(+/+) mice [4] (ob/ob(+/+) mice, 150 μg/kg/d 6 weeks, 15 and 60 minutes, vs untreated) is given as “significantly lower”. Moreover, the “integrated AUC over 120 minutes of glucose” value in the data set on ob/ob(+/+) mice [4] (ob/ob(+/+) mice, 150 μg/kg/d 6 weeks, vs untreated) is “significantly lower”.
